Holding throughout (assay type): cell-based
Experiment [1] deals with Mu-type opioid receptor (Homo sapiens, UniProt P35372). Put plainly: Displacement of [3H]diprenorphine from cloned human mu opioid receptor expressed in CHO cells.
The target in experiment [2] is Kappa-type opioid receptor (Homo sapiens, UniProt P41145). The experiment in a line: Displacement of [3H]diprenorphine from cloned human kappa opioid receptor expressed in CHO cells.
Experiment [3] deals with Delta-type opioid receptor (Homo sapiens, UniProt P41143). Put plainly: Displacement of [3H]bremazocine from cloned human delta opioid receptor expressed in CHO cells.

By Ki is commonly meant the dissociation constant of the complex between target and ligand, obtained from inhibition or displacement. High values mean weaker binding, low ones tighter binding.

Bounds are passed on as bounds.

Kappa-type opioid receptor, sequence (P41145 whole entry): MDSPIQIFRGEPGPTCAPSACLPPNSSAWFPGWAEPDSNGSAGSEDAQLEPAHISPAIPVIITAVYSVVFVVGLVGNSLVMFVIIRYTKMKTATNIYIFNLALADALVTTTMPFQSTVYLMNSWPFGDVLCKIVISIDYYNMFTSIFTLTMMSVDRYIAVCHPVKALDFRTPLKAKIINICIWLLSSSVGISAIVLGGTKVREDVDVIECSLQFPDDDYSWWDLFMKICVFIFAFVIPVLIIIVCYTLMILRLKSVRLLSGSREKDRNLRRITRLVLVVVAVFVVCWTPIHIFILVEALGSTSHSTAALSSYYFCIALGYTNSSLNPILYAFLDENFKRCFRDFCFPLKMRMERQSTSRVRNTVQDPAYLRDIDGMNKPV
Delta-type opioid receptor, sequence (P41143 whole entry): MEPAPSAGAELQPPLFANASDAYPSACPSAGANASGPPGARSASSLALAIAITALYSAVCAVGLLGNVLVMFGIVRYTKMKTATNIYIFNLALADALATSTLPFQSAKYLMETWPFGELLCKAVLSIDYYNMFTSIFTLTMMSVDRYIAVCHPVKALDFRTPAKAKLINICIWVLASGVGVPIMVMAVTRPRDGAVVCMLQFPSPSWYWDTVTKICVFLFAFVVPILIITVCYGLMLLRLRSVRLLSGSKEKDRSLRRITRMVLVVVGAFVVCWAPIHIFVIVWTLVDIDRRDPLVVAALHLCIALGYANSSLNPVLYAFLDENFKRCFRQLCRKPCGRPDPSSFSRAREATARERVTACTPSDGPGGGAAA
Mu-type opioid receptor, sequence (P35372 whole entry): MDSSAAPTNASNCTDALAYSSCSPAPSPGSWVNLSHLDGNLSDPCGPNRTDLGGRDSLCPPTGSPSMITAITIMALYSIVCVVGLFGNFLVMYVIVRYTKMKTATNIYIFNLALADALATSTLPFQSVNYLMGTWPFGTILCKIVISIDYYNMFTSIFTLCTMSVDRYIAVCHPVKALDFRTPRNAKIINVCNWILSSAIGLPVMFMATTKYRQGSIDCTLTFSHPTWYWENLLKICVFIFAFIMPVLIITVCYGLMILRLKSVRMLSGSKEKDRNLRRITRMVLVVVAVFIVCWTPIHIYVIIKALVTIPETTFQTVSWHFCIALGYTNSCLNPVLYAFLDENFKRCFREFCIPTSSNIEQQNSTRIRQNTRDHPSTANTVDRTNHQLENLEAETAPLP

`NC(=O)c1ccc(Oc2ccc(CCN3CCc4ccccc4C3)cc2)nc1`: the Ki is 5.05 nM in experiment [1], 188 nM in experiment [2] and 144 nM in experiment [3].
The like results for `NC(=O)c1ccc(Oc2ccc3c(c2)CN(Cc2ccccc2)CC3)nc1` were, in that order, 232 nM, 2430 nM and 2450 nM.
The like results for `CC(C)CCCCN1CCCc2cc(Oc3ccc(C(N)=O)cn3)ccc2C1` were, in that order, 11.9 nM, 319 nM and 240 nM.
Taken in the same sequence, the figures for `NC(=O)c1ccc(Oc2ccc3c(c2)CCN(CCCc2ccccc2)C3)nc1` were 185 nM, 556 nM and 2140 nM.
`NC(=O)c1ccc(Oc2ccc3c(c2)CN(CCc2ccccc2)CC3)nc1`: the Ki in experiment [1] was above 3330 nM; in experiment [2], 3610 nM; in experiment [3] it was above 5000 nM.
The like results for `CCC(CC)CN1CCCc2cc(Oc3ccc(C(N)=O)cn3)ccc2C1` were, in that order, 42 nM, 61.6 nM and 3890 nM.
With `NC(=O)c1ccc(Oc2ccc3c(c2)CCN(Cc2ccccc2)C3)nc1`, the Ki was found to be 179 nM in experiment [1], 2150 nM in experiment [2] and 2350 nM in experiment [3].
Take `NC(=O)c1ccc(Oc2ccc3c(c2)CCCN(CCCN2CCOCC2)C3)nc1`: the Ki turned out to be 216 nM in experiment [1], 3250 nM in experiment [2] and 2580 nM in experiment [3].
The like results for `CCCCCCN1CCCc2cc(Oc3ccc(C(N)=O)cn3)ccc2C1` were, in that order, 12 nM, 116 nM and 163 nM.
The like results for `NC(=O)c1ccc(Oc2ccc3c(c2)CCN(Cc2ccccc2)CC3)nc1` were, in that order, 406 nM, 2870 nM and 2710 nM.
Consider `NC(=O)c1ccc(Oc2ccc3c(c2)CCCN(CCCC(F)(F)F)C3)nc1`, for which the figures for the Ki in experiment [1] and in experiment [3] were 24.4 nM and 388 nM, respectively.
Consider `NC(=O)c1ccc(Oc2ccc3c(c2)CCN(CCc2ccccc2)C3)nc1`, for which the Ki in experiment [1] stood at 16 nM; in experiment [2], 1220 nM; in experiment [3], 180 nM.
The like results for `NC(=O)c1ccc(Oc2ccc3c(c2)CN(Cc2ccccc2)C3)nc1` were, in that order, 1010 nM, above 5000 nM and above 5000 nM.
For `CCCCN1CCCc2cc(Oc3ccc(C(N)=O)cn3)ccc2C1`, the Ki in experiment [1] turned out to be 20.8 nM; in experiment [3], 504 nM.
As to `NC(=O)c1ccc(Oc2ccc3c(c2)CCN(CCc2ccccc2)CC3)nc1`, the values for the Ki in experiment [1], in experiment [2] and in experiment [3] were 91.5 nM, above 4900 nM and 1380 nM, respectively.
Taken in the same sequence, the figures for `NC(=O)c1ccc(Oc2ccc3c(c2)CCCN(CCCC2CCCCC2)C3)nc1` were 41.7 nM, 704 nM and 466 nM.
The like results for `NC(=O)c1ccc(Oc2ccc3c(c2)CN(CCc2ccccc2)C3)nc1` were, in that order, 659 nM, above 5000 nM and 2270 nM.
Taken in the same sequence, the figures for `NC(=O)c1ccc(Oc2ccc3c(c2)CCCN(CCc2ccccc2)C3)nc1` were 10.1 nM, 361 nM and 169 nM.
As for `CC(C)CCN1CCCc2cc(Oc3ccc(C(N)=O)cn3)ccc2C1`, the Ki in experiment [1] is 11.1 nM; in experiment [2], 78.1 nM; in experiment [3], 232 nM.
Taken in the same sequence, the figures for `CCCCCN1CCCc2cc(Oc3ccc(C(N)=O)cn3)ccc2C1` were 11.9 nM, 106 nM and 187 nM.
The like results for `NC(=O)c1ccc(Oc2ccc3c(c2)CCCN(CCN2CCOCC2)C3)nc1` were, in that order, 129 nM, 360 nM and 1910 nM.
Taken in the same sequence, the figures for `CC(C)(C)CCN1CCCc2cc(Oc3ccc(C(N)=O)cn3)ccc2C1` were 18.3 nM, 71.6 nM and 409 nM.
For `CC(C)CCCN1CCCc2cc(Oc3ccc(C(N)=O)cn3)ccc2C1`, the Ki is 7.55 nM in experiment [1], 106 nM in experiment [2] and 108 nM in experiment [3].
